Measured values taken from patent US20020035106A1, “Use of potassium channel agonists for reducing fat food consumption” (priority 2000, published 2002).

Experiments:
[1] = system: fed male obese Zucker rat; experiment: The snacking model: consumption of a palatable high fat or low fat meal; type: in vivo
Source text: Rats are habituated to the presence of a palatable high fat meal (Research diets 45% fat D12451) or another palatable low fat meal (Research diets 10% fat D12450B) in their home cage during four hours in the morning two times a week, 9-13a.m. The rats feed ad libitum on rat chow (Altromin #1324, 4% fat) outside the hours of the session and water is present adlibitum. The consumption of the meal is monitored, and as it stabilises, by 7-9 sessions, the animal is ready for use.
The animals are tested two times a week, and the baseline is re-established within 24h. During the experimental session, the compound is administered 30 minutes before the session starts. Food and water intake is monitored at 2 and 4 hours after the meal is presented.

[2] = system: hyperinsulinemic obese individuals; conditions: 8 weeks treatment; cited from earlier work
[3] = system: obese Zucker rats; conditions: cited from earlier work
[4] = biological target: T1, KATP-channels on pancreatic beta-cells (Homo sapiens, UniProt Q09428); conditions: by activation of KATP-channels on pancreatic beta-cells; cited from earlier work
T1 construct: KATP-channels on pancreatic beta-cells; host or cells: pancreatic beta-cells (endogenous)
T1 sequence (Q09428 whole entry): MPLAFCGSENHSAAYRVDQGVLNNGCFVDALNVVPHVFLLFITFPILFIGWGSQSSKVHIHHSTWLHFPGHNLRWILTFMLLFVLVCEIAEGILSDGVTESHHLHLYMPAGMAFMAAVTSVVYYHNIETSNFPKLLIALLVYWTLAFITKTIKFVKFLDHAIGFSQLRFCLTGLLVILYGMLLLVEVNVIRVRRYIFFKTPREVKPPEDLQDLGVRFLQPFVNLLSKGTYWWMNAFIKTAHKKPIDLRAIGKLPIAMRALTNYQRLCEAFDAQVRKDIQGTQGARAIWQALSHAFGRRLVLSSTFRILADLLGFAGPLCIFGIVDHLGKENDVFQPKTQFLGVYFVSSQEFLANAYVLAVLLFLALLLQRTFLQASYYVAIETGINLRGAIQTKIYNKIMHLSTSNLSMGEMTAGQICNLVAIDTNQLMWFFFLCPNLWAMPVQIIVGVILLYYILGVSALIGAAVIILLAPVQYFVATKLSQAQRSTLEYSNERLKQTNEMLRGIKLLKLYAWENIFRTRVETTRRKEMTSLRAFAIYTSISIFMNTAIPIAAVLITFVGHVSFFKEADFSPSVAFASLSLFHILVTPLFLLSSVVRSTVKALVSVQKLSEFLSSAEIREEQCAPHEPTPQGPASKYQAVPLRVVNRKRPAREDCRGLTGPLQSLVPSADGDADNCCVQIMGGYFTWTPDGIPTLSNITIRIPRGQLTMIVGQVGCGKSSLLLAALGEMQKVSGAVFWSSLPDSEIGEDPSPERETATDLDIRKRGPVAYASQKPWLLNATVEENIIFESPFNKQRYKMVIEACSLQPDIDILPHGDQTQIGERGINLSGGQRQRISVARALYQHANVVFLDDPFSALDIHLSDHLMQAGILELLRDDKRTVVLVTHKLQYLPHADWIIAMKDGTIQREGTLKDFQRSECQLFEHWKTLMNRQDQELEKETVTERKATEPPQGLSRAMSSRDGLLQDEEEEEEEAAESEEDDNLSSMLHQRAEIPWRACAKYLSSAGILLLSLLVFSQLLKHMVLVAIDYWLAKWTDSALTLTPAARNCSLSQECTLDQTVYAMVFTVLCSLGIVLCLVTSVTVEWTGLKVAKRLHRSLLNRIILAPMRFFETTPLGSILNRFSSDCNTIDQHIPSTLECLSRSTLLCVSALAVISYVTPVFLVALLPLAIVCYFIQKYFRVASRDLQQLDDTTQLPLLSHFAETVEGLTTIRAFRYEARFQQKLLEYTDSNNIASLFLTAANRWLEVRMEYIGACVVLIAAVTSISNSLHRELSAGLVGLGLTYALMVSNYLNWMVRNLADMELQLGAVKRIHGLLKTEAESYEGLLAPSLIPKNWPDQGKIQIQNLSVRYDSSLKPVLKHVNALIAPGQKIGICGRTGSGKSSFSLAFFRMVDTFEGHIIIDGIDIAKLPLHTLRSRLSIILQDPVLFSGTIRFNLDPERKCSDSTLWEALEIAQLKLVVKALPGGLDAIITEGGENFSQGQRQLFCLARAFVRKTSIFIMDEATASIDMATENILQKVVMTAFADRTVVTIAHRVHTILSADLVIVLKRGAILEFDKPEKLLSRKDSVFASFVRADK
T1 sequence (Q14654 whole entry partner): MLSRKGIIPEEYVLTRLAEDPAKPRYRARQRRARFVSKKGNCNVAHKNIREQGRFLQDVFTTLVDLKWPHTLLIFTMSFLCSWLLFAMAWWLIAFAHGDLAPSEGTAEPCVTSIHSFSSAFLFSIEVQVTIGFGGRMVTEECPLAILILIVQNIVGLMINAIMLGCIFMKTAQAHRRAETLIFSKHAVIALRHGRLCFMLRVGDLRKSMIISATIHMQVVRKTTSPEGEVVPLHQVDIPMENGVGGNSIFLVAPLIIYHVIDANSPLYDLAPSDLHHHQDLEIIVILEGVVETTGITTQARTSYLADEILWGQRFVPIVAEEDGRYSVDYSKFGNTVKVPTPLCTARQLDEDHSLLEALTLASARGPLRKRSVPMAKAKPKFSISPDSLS

[5] = system: mice; conditions: intracerebroventricular administration; cited from earlier work
[6] = system: rats; conditions: cited from earlier work
[7] = 30 mg/kg PO admin., 30 minutes before session

SMILES: CC1(NC2=NS(=O)(=O)c3sc(Cl)cc3N2)CC1 [6-Chloro-3-(1-methylcyclopropyl)amino-4H-thieno[3,2-e]-1,2,4-thiadiazine 1,1-dioxide]
- reduced consumption of a high fat meal (45 kcal % fat) ([1]; 5 mg/kg PO admin.): 44%
- reduced consumption of a low fat meal (10 kcal % fat) ([1]; 5 mg/kg PO admin.): 15%
- reduced consumption of a high fat meal (45 kcal % fat) ([1]; 15 mg/kg PO admin.): 64%
- reduced consumption of a low fat meal (10 kcal % fat) ([1]; 15 mg/kg PO admin.): 57%
- reduced consumption of a high fat meal (45 kcal % fat) [1, 7]: 86%
- reduced consumption of a low fat meal (10 kcal % fat) [1, 7]: 75%

SMILES: CC1=Nc2ccc(Cl)cc2S(=O)(=O)N1 [Diazoxide, 7-chloro-3-methyl-2H-1,2,4-benzothiadiazine 1,1-dioxide]
- antiobesity effect [2]: significant antiobesity effect
- reduced consumption of a high fat meal (45 kcal % fat) [1, 7]: 53%
- reduced consumption of a low fat meal (10 kcal % fat) [1, 7]: 42%
- leptin and lipid metabolising enzymes ([3]; adipose tissue of Zucker rats): down-regulate leptin and lipid metabolising enzymes
- glucose tolerance ([3]; obese Zucker rats): improve glucose tolerance
- insulin receptor binding ([3]; obese Zucker rats): increase insulin receptor binding
- insulin secretion ([3]; obese Zucker rats): decrease insulin secretion
- weight gain ([3]; obese Zucker rats): decrease weight gain
- insulin release [4]: inhibit insulin release

SMILES: CC(N/C(=N\C#N)Nc1ccncc1)C(C)(C)C (stereo not drawn) [pinacidil]
- intake of food [5]: increase to intake of food

SMILES: COc1ccc(Cl)cc1C(=O)NCCc1ccc(S(=O)(=O)NC(=O)NC2CCCCC2)cc1 [glibenclamide]
- food intake ([6]; central administration): reduce food intake

SMILES: CC1(C)Oc2ccc(C#N)cc2C(N2CCCC2=O)C1O (stereo not drawn) [cromakalim]
- intake of food ([6]; intraperitonal administration): reduces the intake of food
- intake of food [5]: increase to intake of food

SMILES: CC(C)NC1=NS(=O)(=O)c2sc(Cl)cc2N1 [6-Chloro-3-isopropylamino-4H-thieno[3,2-e]-1,2,4-thiadiazine 1,1-dioxide]
- reduced consumption of a high fat meal (45 kcal % fat) [1, 7]: 77%
- reduced consumption of a low fat meal (10 kcal % fat) [1, 7]: 61%
